Like-named read-outs stand apart in the source and are kept apart here.

We go through 7 compounds from publication PMC6199744, “Development of Chemical Proteomics for the Folateome and Analysis of the Kinetoplastid Folateome” (ACS Infectious Diseases, 2018).

Common to all, as to format: binding
Assay [1] deals with T1, HeLa cell extract proteins (Homo sapiens, UniProt Q9NX61).
T1 construct: endogenous in cells; host or cells: HeLa cell extract
T1 sequence (Q9NX61 29-479): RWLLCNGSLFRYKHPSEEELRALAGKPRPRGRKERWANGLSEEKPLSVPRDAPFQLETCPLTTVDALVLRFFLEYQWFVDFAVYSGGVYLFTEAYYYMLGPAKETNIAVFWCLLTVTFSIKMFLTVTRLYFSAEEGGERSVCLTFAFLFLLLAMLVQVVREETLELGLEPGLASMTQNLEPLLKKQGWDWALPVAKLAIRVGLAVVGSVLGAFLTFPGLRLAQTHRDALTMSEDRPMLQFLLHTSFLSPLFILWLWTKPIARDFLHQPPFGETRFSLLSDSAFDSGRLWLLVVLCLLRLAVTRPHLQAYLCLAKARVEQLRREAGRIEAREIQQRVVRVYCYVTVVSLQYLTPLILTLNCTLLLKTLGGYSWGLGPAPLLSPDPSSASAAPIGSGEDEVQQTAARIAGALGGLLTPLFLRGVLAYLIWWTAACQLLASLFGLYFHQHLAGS
Conditions: captured protein TMEM161A; HeLa.

For assay [2], the target named is T2, HeLa cell extract proteins (Homo sapiens, UniProt P12236).
T2 construct: endogenous in cells; host or cells: HeLa cell extract
T2 sequence (P12236 1-298): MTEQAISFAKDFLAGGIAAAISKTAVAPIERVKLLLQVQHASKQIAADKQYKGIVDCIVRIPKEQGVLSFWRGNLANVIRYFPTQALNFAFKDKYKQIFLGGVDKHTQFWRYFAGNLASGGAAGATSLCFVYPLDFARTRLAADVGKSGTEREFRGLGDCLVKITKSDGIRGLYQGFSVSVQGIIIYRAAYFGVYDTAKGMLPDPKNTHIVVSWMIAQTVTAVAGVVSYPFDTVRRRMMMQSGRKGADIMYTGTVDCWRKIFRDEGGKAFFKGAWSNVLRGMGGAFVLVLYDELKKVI
The conditions noted are these: captured protein SLC25A6; HeLa.

Assay [3] deals with T3, HeLa cell extract proteins (Homo sapiens, UniProt P82933).
T3 construct: endogenous in cells; host or cells: HeLa cell extract
Conditions: protein MRPS9; HeLa.

The target of assay [4] is T4, HeLa cell extract proteins (Homo sapiens, UniProt P46976).
T4 construct: endogenous in cells; host or cells: HeLa cell extract
T4 sequence (P46976 1-350): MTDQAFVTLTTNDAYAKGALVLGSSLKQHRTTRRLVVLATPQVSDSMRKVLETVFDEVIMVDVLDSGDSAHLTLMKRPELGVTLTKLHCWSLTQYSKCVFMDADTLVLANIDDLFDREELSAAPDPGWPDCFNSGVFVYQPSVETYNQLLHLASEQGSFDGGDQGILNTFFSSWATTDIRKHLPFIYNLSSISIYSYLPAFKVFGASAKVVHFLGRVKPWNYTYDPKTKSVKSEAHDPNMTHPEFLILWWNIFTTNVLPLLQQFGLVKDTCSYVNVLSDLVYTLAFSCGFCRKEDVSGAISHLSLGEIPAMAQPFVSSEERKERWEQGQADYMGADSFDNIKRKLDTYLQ
Conditions: protein GYG1; HeLa.

Assay [5] has as its target T5, HeLa cell extract proteins (Homo sapiens, UniProt Q8NB46).
T5 construct: endogenous in cells; host or cells: HeLa cell extract
T5 sequence (Q8NB46 1-1076): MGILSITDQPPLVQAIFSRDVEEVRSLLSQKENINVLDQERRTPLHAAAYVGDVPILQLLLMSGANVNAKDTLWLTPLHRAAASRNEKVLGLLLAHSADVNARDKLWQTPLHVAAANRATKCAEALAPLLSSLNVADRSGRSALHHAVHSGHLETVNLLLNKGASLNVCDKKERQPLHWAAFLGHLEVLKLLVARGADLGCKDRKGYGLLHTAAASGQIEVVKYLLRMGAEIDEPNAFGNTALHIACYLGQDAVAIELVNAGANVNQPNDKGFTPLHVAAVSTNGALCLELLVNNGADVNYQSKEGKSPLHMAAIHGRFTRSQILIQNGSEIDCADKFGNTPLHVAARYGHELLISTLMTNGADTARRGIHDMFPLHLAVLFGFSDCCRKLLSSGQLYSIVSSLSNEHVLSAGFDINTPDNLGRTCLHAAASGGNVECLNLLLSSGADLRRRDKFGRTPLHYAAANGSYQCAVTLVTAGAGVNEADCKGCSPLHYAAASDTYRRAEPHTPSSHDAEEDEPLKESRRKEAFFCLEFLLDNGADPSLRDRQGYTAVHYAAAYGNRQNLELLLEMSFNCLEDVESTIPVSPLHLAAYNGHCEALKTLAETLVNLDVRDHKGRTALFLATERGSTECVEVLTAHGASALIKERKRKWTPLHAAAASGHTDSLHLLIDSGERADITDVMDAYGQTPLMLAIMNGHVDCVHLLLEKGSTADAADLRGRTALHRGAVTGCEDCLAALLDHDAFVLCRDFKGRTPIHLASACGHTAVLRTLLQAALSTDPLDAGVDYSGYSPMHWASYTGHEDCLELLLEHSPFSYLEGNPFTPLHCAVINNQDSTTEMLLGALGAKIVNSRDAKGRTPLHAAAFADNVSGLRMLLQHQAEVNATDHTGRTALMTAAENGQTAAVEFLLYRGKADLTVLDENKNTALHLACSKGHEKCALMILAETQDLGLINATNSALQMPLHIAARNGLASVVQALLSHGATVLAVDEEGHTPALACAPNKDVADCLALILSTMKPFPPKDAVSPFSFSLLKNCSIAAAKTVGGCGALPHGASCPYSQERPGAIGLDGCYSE

Assay [6] deals with T6, HeLa cell extract proteins (Homo sapiens, UniProt Q9Y6G9).
T6 construct: endogenous in cells; host or cells: HeLa cell extract
T6 sequence (Q9Y6G9 whole entry): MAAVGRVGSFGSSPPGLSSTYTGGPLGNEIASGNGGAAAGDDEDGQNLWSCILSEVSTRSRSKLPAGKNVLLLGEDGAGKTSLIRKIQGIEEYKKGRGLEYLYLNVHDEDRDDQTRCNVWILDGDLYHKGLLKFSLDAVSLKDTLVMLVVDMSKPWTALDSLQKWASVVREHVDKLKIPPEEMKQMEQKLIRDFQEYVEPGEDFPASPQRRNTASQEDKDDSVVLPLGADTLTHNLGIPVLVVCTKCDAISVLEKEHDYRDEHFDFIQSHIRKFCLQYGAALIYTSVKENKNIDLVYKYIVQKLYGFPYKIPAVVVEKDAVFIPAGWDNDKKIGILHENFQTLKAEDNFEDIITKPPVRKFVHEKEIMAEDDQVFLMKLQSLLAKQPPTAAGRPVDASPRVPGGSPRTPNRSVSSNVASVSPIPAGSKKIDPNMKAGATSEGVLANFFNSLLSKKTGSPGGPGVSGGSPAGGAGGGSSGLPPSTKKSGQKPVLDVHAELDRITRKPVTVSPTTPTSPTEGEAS

Assay [7] deals with T7, HeLa cell extract proteins (Homo sapiens, UniProt Q9H4A4).
T7 construct: endogenous in cells; host or cells: HeLa cell extract
T7 sequence (Q9H4A4 whole entry): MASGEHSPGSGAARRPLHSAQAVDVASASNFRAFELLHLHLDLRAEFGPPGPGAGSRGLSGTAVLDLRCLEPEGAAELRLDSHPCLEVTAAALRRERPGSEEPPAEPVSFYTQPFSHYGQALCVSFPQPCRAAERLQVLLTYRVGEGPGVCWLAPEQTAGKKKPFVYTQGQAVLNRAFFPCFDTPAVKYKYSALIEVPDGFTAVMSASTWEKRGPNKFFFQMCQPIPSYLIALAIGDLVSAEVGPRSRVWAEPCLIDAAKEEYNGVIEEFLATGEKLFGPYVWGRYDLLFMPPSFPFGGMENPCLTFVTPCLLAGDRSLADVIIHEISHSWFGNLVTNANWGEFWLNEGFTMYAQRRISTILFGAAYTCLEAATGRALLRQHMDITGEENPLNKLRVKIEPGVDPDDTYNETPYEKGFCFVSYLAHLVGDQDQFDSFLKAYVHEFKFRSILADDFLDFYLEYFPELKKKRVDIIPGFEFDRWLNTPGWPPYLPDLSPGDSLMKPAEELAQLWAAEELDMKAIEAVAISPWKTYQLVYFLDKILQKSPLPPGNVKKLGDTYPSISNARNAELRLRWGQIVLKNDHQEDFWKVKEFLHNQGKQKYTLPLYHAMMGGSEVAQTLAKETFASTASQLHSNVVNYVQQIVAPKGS

Assay [8] concerns the target T8, HeLa cell extract proteins (Homo sapiens, UniProt P30049).
T8 construct: endogenous in cells; host or cells: HeLa cell extract
T8 sequence (P30049 23-168): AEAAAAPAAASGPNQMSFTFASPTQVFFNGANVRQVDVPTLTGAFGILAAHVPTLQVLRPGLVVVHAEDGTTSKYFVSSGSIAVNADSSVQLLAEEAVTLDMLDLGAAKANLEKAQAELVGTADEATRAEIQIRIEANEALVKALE

Take `CCCCCCOc1cccc(Cc2cnc(N)nc2N)c1` [compound 2]: the “fold changes relative to vehicle control” value was determined as 1.02 in assay [1], 1.04 in assay [2], 1.3 in assay [3] and 1.31 in assay [4].

As to `NCCOCCOCC(=O)Nc1nc2ncc(CNc3ccc(C(=O)NC(CCC(=O)O)C(=O)O)cc3)nc2c(=O)[nH]1` (stereo not shown) [compound 6], the “fold changes relative to vehicle control” value in assay [5] (HeLa, protein ANKRD52) is given as 1.06; in assay [6] (HeLa, protein DYNC1LI1), 0.9; in assay [7] (protein RNPEP, HeLa) it was 0.99; in assay [8] (protein ATP5D, HeLa) it was 1.17.

As to `CCCCCCOc1ccc(Cc2cnc(N)nc2N)cc1` [compound 1], the “fold changes relative to vehicle control” value amounted to 0.76 in assay [1], 0.98 in assay [2], 1.24 in assay [3] and 1.09 in assay [4].

For `Nc1nc2c(c(=O)[nH]1)N(C=O)C(CNc1ccc(C(=O)N[C@@H](CCC(=O)O)C(=O)O)cc1)CN2` (stereo partly shown) [LEU, leucovorin], the “fold changes relative to vehicle control” value in assay [5] (HeLa, protein ANKRD52) worked out at 0.89; in assay [6] (HeLa, protein DYNC1LI1) it was 0.9; in assay [7] (protein RNPEP, HeLa) it was 0.93; in assay [8] (protein ATP5D, HeLa) it was 0.85.

On to `NCCCNc1ccc(C(=O)NC(CCC(=O)O)C(=O)O)cc1` (stereo not shown) [compound 7], for which the “fold changes relative to vehicle control” value in assay [5] (HeLa, protein ANKRD52) is on record as 1.03; in assay [6] (HeLa, protein DYNC1LI1), 0.88; in assay [7] (protein RNPEP, HeLa), 0.74; in assay [8] (protein ATP5D, HeLa), 1.2.

`Nc1nc2[nH]cc(CCc3ccc(C(=O)N[C@@H](CCC(=O)O)C(=O)O)cc3)c2c(=O)[nH]1` [PTX, pemetrexed]: the “fold changes relative to vehicle control” value is listed as 1.01 in assay [5], 0.81 in assay [6], 0.81 in assay [7] and 1.14 in assay [8].

In the case of `Nc1nc2cccc(-c3ccccc3)c2n1Cc1ccc(Cl)c(Cl)c1` [compound 3], the “fold changes relative to vehicle control” value in assay [1] was found to be 0.94; in assay [2], 1.01; in assay [3] it was 0.92; in assay [4] it was 0.95.
